Literature values in PMC12084609, “Structural insights into small-molecule agonist recognition and activation of complement receptor C3aR” (The EMBO Journal, 2025).

Test system: C3aR
Set-up: method as in Luo et al, 2025
Settings: HEK293 cells; ref Luo et al, 2025; cited from earlier work

Structure (SMILES): Cc1cc(C(c2ccc(Cl)cc2)c2ccc(Cl)cc2)sc1C(=O)N[C@@H](CCCNC(=N)N)C(=O)O [JR14a, reference compound]
- forskolin-induced cAMP production: inhibited forskolin-induced cAMP production in a dose-dependent manner
